This is an account of results in patent US8053474B2, “Compound with carboxyl acid group and amide group and application thereof” (Corum Inc., priority 2009, dated 2011).

Series [1] deals with Mushroom Tyrosinase. As to the kind of experiment: Mushroom Tyrosinase Inhibition Test (Dopa base). The following applies: Dopa base (L-Dopa 1 mg/mL, pH 6.5); sample solution 2% in water, 100 μL in 900 μL substrate; 3 min, 475 nm. The format is biochemical. On the procedure: Mushroom Tyrosinase Inhibition Test (Dopa Base):
Preparation: L-Dopa (L-3,4-dihydroxyphenylalanine; 1 mg/mL) was dissolved in pH 6.5 buffer solution. Samples were dissolved in water and prepared the concentration at 2%.
Method: 900 μL of L-Dopa solution was added into 100 μL of sample solution (or blank solution) and measured by thermo spectronic 475 nm (Aso or Ab0). 15 μL of mushroom […] buffer solution was added into mixture. After reaction for 3 min, mixture was measured by thermo spectronic (As3 or Ab3) (FIG. 1).

For series [2], the system named is Mushroom Tyrosinase. As to the kind of experiment: Mushroom Tyrosinase Inhibition Test (Tyrosine base). The format is biochemical. The following applies: Tyrosine base (Tyrosine 5 mg/mL, pH 6.5); sample solution 2% in water, 100 μL in 900 μL substrate; 60 minutes, 492 nm. On the procedure:
Mushroom Tyrosinase Inhibition Test (Tyrosine Base): Preparation: Tyrosine (5 mg/mL) were dissolved in pH 6.5 buffer solution. Samples were dissolved in water and prepared the concentration at 2%. Method: 900 μL of Tyrosine solution was added into 100 μL of sample solution (or blank solution) and measured by thermo spectronic 492 nm (Aso or Ab0). 40 μL of mushroom tyrosinase buffer solution was added into mixture. After reaction for 60 minutes, the mixture was measured by thermo spectronic (As60 or Ab60) (FIG. 2). Calculation: [formula]

The nature of a further series: Water Solubility. The following applies: in water. In kind it is physicochemical.

In the case of `CN(C)CCNC(=O)CCCCCCCC(=O)O` [(I), 8-(2-Dimethylamino-ethylcarbamoyl)-octanoic acid], the “Mushroom Tyrosinase Inhibition” value is given as 74.3% in the series with Mushroom Tyrosinase [1] and 82.9% with Mushroom Tyrosinase [2].

Take `CC(C)N(CCNC(=O)CCCCCCCC(=O)O)C(C)C` [(II), 8-(2-Diisopropylamino-ethylcarbamoyl)-octanoic acid]: in “Water Solubility”, the “Water Solubility” value came out at 22%. Besides, the “Mushroom Tyrosinase Inhibition” value was 45.7% in the series on Mushroom Tyrosinase [1] and 77.2% in the series with Mushroom Tyrosinase [2].

For `CN(C)CCCNC(=O)CCCCCCCC(=O)O` [(III), 8-(3-Dimethylamino-propylcarbamoyl)-octanoic acid], in the series “Water Solubility”, the “Water Solubility” value is given as 33%. In addition, the “Mushroom Tyrosinase Inhibition” value is given as 56.3% in the series on Mushroom Tyrosinase [1] and 78.4% in the series on Mushroom Tyrosinase [2].

Regarding `CN(C)CCNC(=O)CCCCCCCCC(=O)O` [(IV), 9-(2-Dimethylamino-ethylcarbamoyl)-nonanoic acid], the “Water Solubility” value in the series “Water Solubility” amounted to 17%. For the same compound, the “Mushroom Tyrosinase Inhibition” value in the series on Mushroom Tyrosinase [1] is listed as 50.6%; in the series on Mushroom Tyrosinase [2], 84.1%.

Turning to `CN(C)CCCNC(=O)CCCCCCCCC(=O)O` [(V), 9-(3-Dimethylamino-propylcarbamoyl) nonanoic acid], the “Water Solubility” value in the series “Water Solubility” amounted to 29%. Also, the “Mushroom Tyrosinase Inhibition” value in the series on Mushroom Tyrosinase [1] was determined as 60.0%; with Mushroom Tyrosinase [2], 99.3%.

On to `O=C(O)CCCCCCCC(=O)O` [Azelaic acid, reference compound], for which the “Water Solubility” value in “Water Solubility” is listed as less than 0.5%.
